≈ marks a conversion by molar mass, not a printed value. Where “and” joins values, the source holds several entries; their conditions need not be identical. Identical values can stand only once. Calls of active or inactive are those of the source. The rule behind the calls is not given here. *1 amine or outer side, *2 acyl side, *3 side chain or, on linkers, in order; H or OH if unused. Where a SMILES comes first, the peptide text is derived from it. Bridges are numbered along the chain shown (N, C = ends). [ ]: non-standard residue; d: D form. The star is where a group is joined. pTerphenylCO(4''-OnC5H11) = CCCCCOc1ccc(-c2ccc(-c3ccc(C(=O)*)cc3)cc2)cc1; Orn(4R-OH,5R-OH) = O=C([C@H](C[C@@H](O)[C@@H](O)N[*:3])N[*:1])[*:2]; hTyr(3S-OH,4S-OH) = N[C@H](C(=O)O)[C@H](O)[C@@H](O)c1ccc(O)cc1; Pro(3S-OH,4S-Me) = C[C@H]1CN[C@H](C(=O)O)[C@H]1O; Hyp = O=C(O)[C@@H]1C[C@@H](O)CN1
Tests used:
Nakaseomyces glabratus [1] = test: Antifungal activity against Candida glabrata 05-62 isolate in presence of 5% mouse serum after 24 hrs by broth microdilution method; type: functional
Nakaseomyces glabratus [2] = test: Antifungal activity against Candida glabrata 05-62 isolate in presence of 50% mouse serum after 24 hrs by broth microdilution method; type: functional
Nakaseomyces glabratus [3] = test: Antifungal activity against Candida glabrata 05-62 isolate in presence of 5% human serum after 24 hrs by broth microdilution method; type: functional, organism-based
Nakaseomyces glabratus [4] = test: Antifungal activity against Candida glabrata 05-62 isolate in presence of 50% human serum after 24 hrs by broth microdilution method; type: functional
Nakaseomyces glabratus [5] = test: Antifungal activity against Candida glabrata 05-761 isolate in presence of 5% human serum after 24 hrs by broth microdilution method; type: functional, organism-based
Nakaseomyces glabratus [6] = test: Antifungal activity against Candida glabrata 05-761 isolate after 24 hrs by broth microdilution method; type: functional
Nakaseomyces glabratus [7] = test: Antifungal activity against Candida glabrata 05-761 isolate in presence of 5% mouse serum after 24 hrs by broth microdilution method; type: functional
Nakaseomyces glabratus [8] = test: Antifungal activity against Candida glabrata 05-761 isolate in presence of 50% mouse serum after 24 hrs by broth microdilution method; type: functional
Nakaseomyces glabratus [9] = test: Antifungal activity against Candida glabrata 05-761 isolate in presence of 50% human serum after 24 hrs by broth microdilution method; type: functional
Nakaseomyces glabratus [10] = test: Antifungal activity against Candida glabrata 05-62 isolate after 24 hrs by broth microdilution method; type: functional
Nakaseomyces glabratus [11] = test: Antifungal activity against Candida glabrata 05-761 isolate infected ICR mouse kidney assessed as reduction of tissue fungal burden at 1 mg/kg, ip; type: functional, organism-based; set-up: dose 1 mg/kg
Nakaseomyces glabratus [12] = test: Antifungal activity against Candida glabrata 05-761 isolate infected ICR mouse kidney assessed as reduction of tissue fungal burden at 0.5 mg/kg, ip; type: functional, organism-based; set-up: dose 0.5 mg/kg
Nakaseomyces glabratus [13] = test: Antifungal activity against Candida glabrata 05-761 isolate infected ICR mouse kidney assessed as reduction of tissue fungal burden at 5 mg/kg, ip; type: functional, organism-based; set-up: dose 5 mg/kg
Nakaseomyces glabratus [14] = test: Antifungal activity against Candida glabrata 05-761 isolate assessed as decrease in fungal turbidity by microdilution method; type: functional
Nakaseomyces glabratus [15] = test: Antifungal activity against Candida glabrata 05-761 isolate assessed as decrease in fungal turbidity in presence of 5% mouse serum by microdilution method; type: functional
Nakaseomyces glabratus [16] = test: Antifungal activity against Candida glabrata 05-761 isolate assessed as decrease in fungal turbidity in presence of 50% mouse serum by microdilution method; type: functional
Nakaseomyces glabratus [17] = test: Antifungal activity against Candida glabrata 05-62 isolate assessed as decrease in fungal turbidity in presence of 5% human serum by microdilution method; type: functional
Nakaseomyces glabratus [18] = test: Antifungal activity against Candida glabrata 05-62 isolate after 2 hrs in presence of 5% mouse serum by XTT reduction assay; type: functional
Nakaseomyces glabratus [19] = test: Antifungal activity against Candida glabrata 05-62 isolate after 2 hrs in presence of 50% mouse serum by XTT reduction assay; type: functional
Nakaseomyces glabratus [20] = test: Antifungal activity against Candida glabrata 05-62 isolate assessed as decrease in fungal turbidity in presence of 50% human serum by microdilution method; type: functional
Nakaseomyces glabratus [21] = test: Antifungal activity against Candida glabrata 05-761 isolate assessed as decrease in fungal turbidity in presence of 5% human serum by microdilution method; type: functional
Nakaseomyces glabratus [22] = test: Antifungal activity against Candida glabrata 05-761 isolate assessed as decrease in fungal turbidity in presence of 50% human serum by microdilution method; type: functional
Nakaseomyces glabratus [23] = test: Antifungal activity against Candida glabrata 05-761 isolate after 22 hrs by XTT assay; type: functional, organism-based
Nakaseomyces glabratus [24] = test: Antifungal activity against Candida glabrata 05-62 isolate after 22 hrs by XTT assay; type: functional, organism-based
Nakaseomyces glabratus [25] = test: Antifungal activity against Candida glabrata 05-62 isolate in presence of 5% human serum after 22 hrs by XTT assay; type: functional, organism-based
[26] = Nakaseomyces glabratus, 24 h, read-out: MIC

Row | Compound | MIC (Nakaseomyces glabratus [1]) [µg/mL] | MIC (Nakaseomyces glabratus [2]) [µg/mL] | IC50 (Nakaseomyces glabratus [3]) [µg/mL] | IC90 (Nakaseomyces glabratus [3]) [µg/mL] | MIC (Nakaseomyces glabratus [3]) [µg/mL] | MIC (Nakaseomyces glabratus [4]) [µg/mL] | IC50 (Nakaseomyces glabratus [5]) [µg/mL] | IC90 (Nakaseomyces glabratus [5]) [µg/mL] | MIC (Nakaseomyces glabratus [5]) [µg/mL] | MIC (Nakaseomyces glabratus [7]) [µg/mL] | MIC (Nakaseomyces glabratus [8]) [µg/mL] | MIC (Nakaseomyces glabratus [9]) [µg/mL] | MIC (Nakaseomyces glabratus [10]; [26]) [µg/mL] | Activity (Nakaseomyces glabratus [11]) | Activity (Nakaseomyces glabratus [12]) | Activity (Nakaseomyces glabratus [13]) | MIC (Nakaseomyces glabratus [14]) [µg/mL] | MIC (Nakaseomyces glabratus [15]) [µg/mL] | MIC (Nakaseomyces glabratus [16]) [µg/mL] | MIC (Nakaseomyces glabratus [17]) [µg/mL] | further results
1 | CCCCCOc1ccc(-c2ccc(-c3ccc(C(=O)N[C@H]4C[C@@H](O)[C@@H](O)NC(=O)[C@@H]5[C@@H](O)[C@@H](C)CN5C(=O)[C@H]([C@@H](C)O)NC(=O)[C@H]([C@H](O)[C@@H](O)c5ccc(O)cc5)NC(=O)[C@@H]5C[C@@H](O)CN5C(=O)[C@H]([C@@H](C)O)NC4=O)cc3)cc2)cc1 [ANIDULAFUNGIN] ({pTerphenylCO(4''-OnC5H11)}-[Orn(4R-OH,5R-OH)]T[Hyp][hTyr(3S-OH,4S-OH)]T[Pro(3S-OH,4S-Me)]; lactam 1-C) | 4 | 8 | 1.7 | 3.1 | 2 | 16 | 0.31 | 0.39 | 0.5 | 0.5 | 1 | 2 | 0.5 (≈ 0.438 µM) | Active | Active | inactive | 0.06 (≈ 0.0526 µM) | 0.5 | 1 | 2 | MIC (Nakaseomyces glabratus [6]): 0.125 µg/mL and 0.06 µg/mL; MIC (Nakaseomyces glabratus [10]): 0.25 µg/mL (≈ 0.219 µM); MIC (Nakaseomyces glabratus [18]): 4 µg/mL; MIC (Nakaseomyces glabratus [19]): 8 µg/mL; MIC (Nakaseomyces glabratus [20]): 8 µg/mL; MIC (Nakaseomyces glabratus [21]): 0.5 µg/mL; MIC (Nakaseomyces glabratus [22]): 1 µg/mL; IC50 (Nakaseomyces glabratus [23]): 0.05 µg/mL (≈ 0.0438 µM); IC90 (Nakaseomyces glabratus [23]): 0.16 µg/mL (≈ 0.14 µM); IC50 (Nakaseomyces glabratus [24]): 0.31 µg/mL (≈ 0.272 µM); IC90 (Nakaseomyces glabratus [24]): 0.41 µg/mL (≈ 0.36 µM); IC50 (Nakaseomyces glabratus [25]): 1.7 µg/mL; IC90 (Nakaseomyces glabratus [25]): 3.1 µg/mL
2 | CC[C@H](C)C[C@H](C)CCCCCCCCC(=O)N[C@H]1C[C@@H](O)[C@@H](NCCN)NC(=O)[C@@H]2[C@@H](O)CCN2C(=O)[C@H]([C@H](O)CCN)NC(=O)[C@H]([C@H](O)[C@@H](O)c2ccc(O)cc2)NC(=O)[C@@H]2C[C@@H](O)CN2C(=O)[C@H]([C@@H](C)O)NC1=O [CASPOFUNGIN] | > 32 | > 32 | 1.4 | > 32 | > 32 | > 32 | 0.29 | 0.33 | 0.5 | 1 | 2 | 1 | > 32 | Active | Active | inactive | 1 (≈ 0.915 µM) | 1 | 2 | 2 | MIC (Nakaseomyces glabratus [6]; [26]): 2 µg/mL (≈ 1.83 µM); MIC (Nakaseomyces glabratus [18]): 4 µg/mL; MIC (Nakaseomyces glabratus [19]): 8 µg/mL; MIC (Nakaseomyces glabratus [20]): 4 µg/mL; MIC (Nakaseomyces glabratus [21]): 0.25 µg/mL; MIC (Nakaseomyces glabratus [22]): 1 µg/mL; IC50 (Nakaseomyces glabratus [23]): 1.1 µg/mL (≈ 1.01 µM); IC90 (Nakaseomyces glabratus [23]): 1.6 µg/mL (≈ 1.46 µM); IC50 (Nakaseomyces glabratus [24]): 1.2 µg/mL (≈ 1.1 µM); IC90 (Nakaseomyces glabratus [24]): > 32 µg/mL; IC50 (Nakaseomyces glabratus [25]): 1.4 µg/mL; IC90 (Nakaseomyces glabratus [25]): > 32 µg/mL

— ChEMBL document CHEMBL1143840, “In vivo efficacy of anidulafungin and caspofungin against Candida glabrata and association with in vitro potency in the presence of sera” (Antimicrob Agents Chemother, 2007)
